The record followed here is patent US5449692A, “Substituted (arylalkylaminobenzyl) aminopropionamide derivatives and process for their preparation” (Farmitalia Carlo Erba S.r.l., priority 1993, dated 1995).

SMILES strings stand for the structures. Counter-ions that a name gives are not always drawn.

A short description of data set [1]: antagonism of maximal electroshock seizures (MES). It is filed as in vivo. As to conditions: MES test; read-out: MES - ED50 (effective dose in 50% of treated animals).
The nature of another data set: in vivo. The protocol:
The neurotoxicity of the compounds and of the reference anticonvulsants was assessed with the rotorod test (Dunan and Miye, J. Am. Pharm. Ass. Sci. Ed., 1957, 46, 208; Kinnard et al. J. Pharmacol. Exp. Ther. 1957, 121, 354; Horowitz, Nature, 1963, 200, 369).
For instance, following Table 1 summarizes the activity and neurotoxicity data obtained in the MES test and in the rotorod test, respectively, for a representative group of compounds according to the present invention, in comparison with the prior art compound 2-(4-benzyl-aminobenzyl)aminopropanamide, dihydrochloride (internal code FCE 26749) which is known from WO-90/14334.
TD50 means toxic dose in 50% of treated animals

As for `CC(NCc1ccc(NCCc2ccccc2)cc1)C(N)=O.Cl.Cl` (stereo not drawn) [FCE 28623, 2-[4-(2-phenylethyl)aminobenzyl]aminopropanamide, dihydrochloride], the ED50 in data set [1] came out at 17.1 mg/kg. Moreover, in “in vivo”, the TD50 came to 917 mg/kg and the selectivity ratio worked out at 54.

For `C[C@H](NCc1ccc(NCc2cccc(F)c2)cc1)C(N)=O` [FCE 27232, 2-[4-(3-fluorobenzyl)aminobenzyl]aminopropanamide, dihydrochloride], the ED50 in data set [1] amounted to 6.4 mg/kg. For the same compound, in “in vivo”, the TD50 is 516 mg/kg and the selectivity ratio was determined as 81.

Take `CC(NCc1ccc(NCc2ccc(Cl)cc2)cc1)C(N)=O.Cl.Cl` (stereo not drawn) [FCE 28622, 2-[4-(4-chlorobenzyl)aminobenzyl]aminopropanamide, dihydrochloride]: the median effective dose (ED50) in data set [1] amounted to 18.7 mg/kg. In the data set “in vivo”, the TD50 was 1640 mg/kg and the selectivity ratio was found to be 88.

In the case of `CC(NCc1ccc(NCc2ccc(F)cc2)cc1)C(N)=O.Cl.Cl` (stereo not drawn) [FCE 28640, 2-[4-(4-fluorobenzyl)aminobenzyl]aminopropanamide, dihydrochloride], the median effective dose (ED50) in data set [1] is 26.5 mg/kg. In “in vivo”, the TD50 is 1680 mg/kg and the selectivity ratio amounted to 63.

With `CC(NCc1ccc(NCc2ccc(Br)cc2)cc1)C(N)=O.Cl.Cl` (stereo not drawn) [FCE 28639, 2-[4-(4-bromobenzyl)aminobenzyl]aminopropanamide, dihydrochloride], the ED50 in data set [1] is 29.1 mg/kg. Further, in the data set “in vivo”, the TD50 worked out at 1900 mg/kg and the selectivity ratio stood at 65.

In the case of `CC(NCc1ccc(NCc2ccccc2)cc1)C(N)=O` (stereo not drawn) [FCE 26749, 2-(4-benzyl-aminobenzyl)aminopropanamide, dihydrochloride, reference compound], the ED50 in data set [1] is 9.5 mg/kg. Also, in the data set “in vivo”, the TD50 was 217 mg/kg and the selectivity ratio was determined as 23.

On to `CC(NCc1ccc(NCc2cccc(Cl)c2)cc1)C(N)=O.Cl.Cl` (stereo not drawn) [FCE 28714, 2-[4-(3-chlorobenzyl)aminobenzyl]aminopropanamide, dihydrochloride], for which, in data set [1], the ED50 is 11.3 mg/kg. Also, in the data set “in vivo”, the TD50 worked out at 663 mg/kg and the selectivity ratio is 59.
